In PubChem BioAssay (NCI):
“And” between values parts separate entries of the source, which are not always exact repeats. Equal values may be shown once.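 The compound was tested at five concentrations on cells cultured in 96-well plates, with a 48-hour exposure period. GI50 = concentration required for 50% inhibition of growth. TGI denotes the concentration required for complete inhibition of growth.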

System: MDA-MB-468 breast
Test: NCI anticancer screen, dose series, 48 h

Structure (SMILES)	GI50	TGI
COc1ccc(C2CC(c3ccc(OC)cc3O)=NN2c2ccc(S(N)(=O)=O)cc2)cc1 (stereo not drawn)	22300 nM	> 100000 nM
CC[C@H]1CCC/C=C/[C@@H]2C[C@H](O)C[C@H]2[C@H](O)/C=C/C(=O)O1		16.7 nM
O=[N+]([O-])c1ccc(N=Nc2c(Cl)cc(O)cc2Cl)cc1	772 nM	5810 nM
CCCS(=O)(=O)Nc1cccc(Nc2ncnc3cc(NC(=O)CCl)ccc23)c1Cl	3160 nM	8520 nM
Cc1ccc(-c2nc(/C=N/Nc3cc(C)nc4ccc(Br)cc34)c(C)o2)cc1	1950 nM	3870 nM
COc1cc(NS(C)(=O)=O)ccc1Cc1c2ccccc2nc2ccccc12	310 nM	1810 nM
COc1c(O)cc2c(c1OC)-c1ccc(SC)c(=O)cc1C(NC(C)=O)CC2 (stereo not drawn)	3020 nM	> 100000 nM
CCCCOc1ccc(S(=O)(=O)N2CCN(c3nccc(N4CCOCC4)n3)CC2)cc1	456 nM	2530 nM
CCN(CC)CCn1c(=O)c2cc(OC)c(OC)cc2c2ccc3cc4c(cc3c21)OCO4	840 nM	19800 nM
O=C1c2cc3c(cc2-c2c1c1ccc(F)cc1c(=O)n2C[C@H](O)[C@H](O)[C@H](O)CO)OCO3	64.6 nM	213 nM
S=C1SCN(Cc2ccccc2)CN1Cc1ccccc1	1200 nM	17100 nM
O=C(c1ccccc1)C1OC1C(=O)c1ccccc1 (stereo not drawn)	1710 nM	6720 nM
CC1=C2[C@@H](CC1)[C@]1(C)O[C@@](C(C)C)(C[C@H]1OC(=O)CO)[C@H]2OC(=O)CCCc1ccccc1	12400 nM	26300 nM
CCOC(=O)Nc1ccc2c(c1)C(=O)N(CC)c1ccccc1O2	201 nM	
COc1cc2c(cc1O)c(=O)n(CCN(C)C)c1c3cc4c(cc3ncc21)OCO4	< 10 nM	14 nM
COc1ccc(CNCCCN2C(=O)c3ccc4c5c(ccc(c35)C2=O)C(=O)N(CCCNCc2ccc(OC)c(OC)c2OC)C4=O)c(OC)c1OC	79.3 nM	151 nM
C#Cc1cccc(NC(=O)c2cccc(NC(=O)CCl)c2)c1	17400 nM	52700 nM
O=c1oc2ccc(Cl)cc2c(=O)n1-c1ccc(F)cc1F	1980 nM	5710 nM
COc1ccc2nc3c(cc2c1)C(=O)CC(c1ccccc1)C3 (stereo not drawn)	4080 nM	> 100000 nM
Cc1c[nH]c(=O)n(Cc2nnc(CCC(=O)c3nc4ccccc4[nH]3)o2)c1=O	156 nM	553 nM
COC(=O)C1=C(C(=O)ON)[C@@H]2C=C[C@@]1([C@@H](Cc1ccccc1)Nc1ccccc1)O2	1480 nM	2970 nM
CCOC(=O)c1c2c(n3ccc(NC(=O)CCN4CCCCC4)cc13)C(=O)c1ncccc1C2=O	1760 nM	3390 nM
O=C1/C(=C/c2ccc(F)cc2)CN(C(=O)C(Cl)Cl)C/C1=C\c1ccc(F)cc1	203 nM	480 nM
COc1ccc(C2=NN(C(C)=O)C(c3ccc(Oc4ccnc5cc(Cl)ccc45)c(OC)c3)C2)cc1 (stereo not drawn)	7430 nM	65100 nM
O=C(Nc1cn[nH]c1-c1nc2ccc(CN3CCOCC3)cc2[nH]1)NC1CC1	35.5 nM and 207 nM	1670 nM and 9370 nM
CCCCc1n(Cc2ccc3ccccc3n2)cc[n+]1Cc1ccc2ccccc2n1	244 nM	1640 nM
CCN1C(=O)N(CC)C2C1NN=c1s/c(=C\c3ccc(C(F)(F)F)cc3)c(=O)n12 (stereo not drawn)	318 nM	24200 nM
CC(C)=Cc1cccc2[nH]c(O)c(N=Nc3ccc(S(N)(=O)=O)cc3)c12	> 5220 nM	> 25000 nM
CCc1cccc(NC(=O)Nc2ccc(Oc3ccc4nc(NC(=O)OC)[nH]c4c3)cc2)c1	75.1 nM	2960 nM
CCn1c(SCC(=O)Nc2cc(C(F)(F)F)ccc2Cl)nc2ccccc2c1=O	14000 nM	> 100000 nM
